The nature of data set [1]: Parallel artificial membrane permeability assay for the blood–brain barrier (PAMPA-BBB), coupled with UHPLC-DAD. The conditions noted are these: constituent measured within T. balsamita 50% (v/v) ethanolic extract (TbE), donor pH 7.4, acceptor pH 7.4, 37 °C, Pe in cm/s, n = 9, read-out: logPe PAMPA-BBB (n = 9) (converted). It is filed as in vitro ADME. An excerpt: (§1) The ability of the compounds in T. balsamita extract (TbE and TbW) to cross biological membranes of the gastrointestinal (GI) tract and the blood–brain barrier (BBB) by passive diffusion was investigated using the PAMPA model. The coupling of this assay with UHPLC separation allowed the rapid simultaneous investigation of the membrane permeability of the compounds present in the extract (Figure 3). […] Due to the artificial nature of the membrane used in the assay, only passive transport mechanisms can occur, unlike in cell-based assays. This is particularly important in the case of plant extracts due to their complexity, as the evaluation of results obtained by different co-existing mechanisms (e.g., active transport, or metabolism) can be challenging. Furthermore, no significant differences in effective permeabilities are observed in the PAMPA, whether assessed with single compounds or mixtures. […]
(§2) After incubation, sandwich plates were separated, and the concentrations of each compound in the starting donor solution and in the acceptor and donor wells were determined in triplicate by chromatographic peak areas derived from the UHPLC-DAD method described above. UV spectra and chromatograms were recorded at 200–400 nm, and the chromatograms acquired at the UV absorption maxima of each compound were used for data evaluation. […]
(In general: The PAMPA barrier holds no transporters, so it reflects passive diffusion.)

Details of data set [2]: method as in PMID 29182998. The conditions noted are these: isolated from Tanacetum parthenium; cited from earlier work.
The nature of data set [3]: Parallel artificial membrane permeability assay for the gastrointestinal tract (PAMPA-GI), coupled with UHPLC-DAD. The class given is in vitro ADME. The conditions noted are these: constituent measured within T. balsamita 50% (v/v) ethanolic extract (TbE), donor pH 6.8, acceptor pH 7.4, 37 °C, Pe in cm/s, n = 9, read-out: logPe PAMPA-GI (n = 9) (converted).
Text: as §1, §2

For `O=c1cc(-c2ccc(O)cc2)oc2cc(O)cc(O)c12` [Compound 86, apigenin], the Papp at 4 h in data set [1] was 34.7 ×10⁻⁶ cm/s; in data set [3], 17.8 ×10⁻⁶ cm/s. The “permeability in the PAMPA-BBB model (in words)” value (shortened to “permeability”) in data set [2] was “good permeability”.

As to `COc1c(O)cc2oc(-c3ccc(O)c(O)c3)c(OC)c(=O)c2c1O` [axillarin], in data set [2], the “permeability” value is “good permeability”.

For the compound `COc1ccc(-c2oc3cc(OC)c(OC)c(O)c3c(=O)c2OC)cc1O` [casticin], the “permeability” value in data set [2] is given as “good permeability”.

Regarding `COc1ccc(-c2cc(=O)c3c(O)c(OC)c(O)c(OC)c3o2)cc1` [nevadensin], the “permeability” value in data set [2] is “good permeability”.

For `COc1cc(-c2cc(=O)c3c(O)c(OC)c(O)c(OC)c3o2)ccc1O` [sudachitin], the “permeability” value in data set [2] is reported as “good permeability”.
